Test [1] concerns HCT116. In words: AC50 cell viability (CellTiter-Glo); higher = less potent. The settings on record: 48 h.
Test [2] deals with HCT116. The test is described as follows: efficacy (fitted maximal change in viability relative to DMSO control); higher = less cytotoxic (negative = loss of viability). The settings on record: 48 h.

“And” between values parts separate entries of the source, which are not always exact repeats. Equal values may be shown once. Where a name gives a salt, the structure may show the parent alone.
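Wherever AC50 cell viability (CellTiter-Glo) is given: HCT116 colorectal carcinoma cells screened at five concentrations per compound, luminescent viability scaled between DMSO wells and empty wells on each plate, curves fitted per compound.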
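Wherever efficacy (fitted maximal change in viability relative to DMSO control) is given: Luminescence-based viability readout, five doses per compound, normalized against on-plate DMSO and empty-well controls, followed by dose-response curve fitting for every drug.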

`CCc1c(O)cc(O)c(C(=O)c2ccc(OCCN3CCOCC3)c(OC)c2)c1CC(=O)N(CCOC)CCOC` [KW-2478] came in with an AC50 cell viability in the test with HCT116 [1] of 0.833 µM. In the test on HCT116 [2], the efficacy was -53.2%.
On to `O=C(Cc1ccc(-c2ccc(OCCN3CCOCC3)cc2)cn1)NCc1ccccc1` [KX-01], for which the AC50 cell viability in the test with HCT116 [1] came to 0.0833 µM. In the test on HCT116 [2], the efficacy is -59.6%.
In the test with HCT116 [1], `N[S+](=O)([O-])c1ccc(NC(=S)N2CCN(C/C=C/c3ccccc3)CC2)cc1` [LF3] yielded an AC50 cell viability of 2.95 µM. In addition, the efficacy in the test with HCT116 [2] was -42.2%.
Taken in the same sequence, the figures for `Cc1cc(-c2ncc(CC(=O)Nc3ccc(-c4cnccn4)cn3)cc2C)ccn1` [LGK-974] were 16.6 µM and -52.5%.
`N[S+](=O)([O-])c1cccc2c1C(=O)c1cccc(O)c1C2=O` [LLL-12] displayed an AC50 cell viability in the test on HCT116 [1] of 0.833 µM. Besides, the efficacy with HCT116 [2] is -88%.
Taken in the same sequence, the figures for `Cc1cn(CCN2CCN(c3ccccc3-c3cc(C#N)cc(C(=O)NCCCN4CCCC4)c3)CC2)c2ccccc12` [LLY-507] were 26.3 µM and -130%.
Turning to `COC1=C(OC)C=C\2C(=C1)C(=O)N(CCCNCCO)\C3=C2C(=O)C4=C3C=C5OCOC5=C4` [LMP-744], in the test on HCT116 [1], the AC50 cell viability came to 4.17 µM. In the test on HCT116 [2], the efficacy was -99.5%.
Taken in the same sequence, the figures for `COc1cc(C(=O)N2CCC(N3CCN(C)CC3)CC2)ccc1Nc1ncc2c(n1)N(C)c1ccccc1C(=O)N2C` [LRRK2-IN-1] were 6.61 µM and -94.6%.
For the compound `Cc1c[nH]c2ncnc(N3CCC(CN)(C(=O)Nc4cccc(OC(=O)N(C)C)c4)CC3)c12` [LX-7101], the AC50 cell viability in the test with HCT116 [1] was 14.8 µM and 11.8 µM. For the same compound, the efficacy in the test on HCT116 [2] is -68.9% and -70.5%.
In turn, `CC1(N)CCN(c2cccnc2NC(=O)c2nc(-c3ncccc3C(F)(F)F)cnc2N)CC1` [LXS-196] gave an AC50 cell viability in the test with HCT116 [1] of 16.6 µM. The efficacy in the test on HCT116 [2] is -70.1%.
`C[S+](=O)([O-])CCNCc1ccc(-c2ccc3ncnc(Nc4ccc(OCc5cccc(F)c5)c(Cl)c4)c3c2)o1` [Lapatinib]: in the test with HCT116 [1], the AC50 cell viability turned out to be 16.6 µM. For the same compound, the efficacy with HCT116 [2] was -99.2%.
Taken in the same sequence, the figures for `CCN(C(=O)C/1=C(O)/C2=C(C=CC=C2Cl)N(C)C1=O)C3=CC=CC=C3` [Laquinimod] were 10.5 µM and -65.8%.
Taken in the same sequence, the figures for `Cc1oncc1C(=O)Nc1ccc(C(F)(F)F)cc1` [Leflunomide] were 3.32 µM and -31.2%.
Taken in the same sequence, the figures for `COc1cc2nccc(Oc3ccc(NC(=O)NC4CC4)c(Cl)c3)c2cc1C(N)=O` [Lenvatinib] were 26.3 µM and -61.7%.
The compound `CCC(=C/[C@H](C)C/C=C/C(C)=C/[C@@H](C)C(=O)[C@@H](C)[C@H](O)[C@@H](C)C/C(C)=C/C(=O)O)/C=C/[C@@H]1OC(=O)C=C[C@@H]1C` [Leptomycin B] came in with an AC50 cell viability in the test on HCT116 [1] of 0.00372 µM. Further, the efficacy in the test with HCT116 [2] is -80.9%.
For `C[C@@]12O[C@@H](C[C@]1(O)CO)n1c3ccccc3c3c4c(c5c6ccccc6n2c5c31)CNC4=O` [Lestaurtinib], the AC50 cell viability with HCT116 [1] came out at 1.05 µM. Besides, in the test on HCT116 [2], the efficacy was -63.8%.
Taken in the same sequence, the figures for `CCC[C@H](Nc1nc(-c2ccc(NC(=O)NCC)c(OC)c2)ncc1C)c1cccnc1` [Lexibulin hydrochloride] were 0.0742 µM and -73.5%.
Taken in the same sequence, the figures for `Cc1ccc(F)c(NC(=O)Nc2ccc(-c3cccc4[nH]nc(N)c34)cc2)c1` [Linifanib] were 9.34 µM and -90.4%.
As for `C[C@]1(O)CC(C1)C2=NC(=C3[N]2C=CN=C3N)C4=CC5=C(C=C4)C=CC(=N5)C6=CC=CC=C6` (stereo not given) [Linsitinib], the AC50 cell viability with HCT116 [1] was 23.5 µM. Also, the efficacy in the test with HCT116 [2] is -46.3%.
Regarding `Nc1nc(OCc2cc(Br)cs2)c2[nH]cnc2n1` [Lomeguatrib], the AC50 cell viability with HCT116 [1] was 18.6 µM. Moreover, the efficacy in the test with HCT116 [2] was -56%.
Regarding `NC(=O)N1CCC(CC(=O)N2CCC([C@H]3c4ncc(Br)cc4CCc4cc(Cl)cc(Br)c43)CC2)CC1` [Lonafarnib], the AC50 cell viability in the test on HCT116 [1] was 18.6 µM. Also, the efficacy in the test on HCT116 [2] was -100%.
Taken in the same sequence, the figures for `CN(C)C(=O)C(CCN1CCC(O)(c2ccc(Cl)cc2)CC1)(c1ccccc1)c1ccccc1` [Loperamide hydrochloride] were 18.6 µM and -98.7%.
In turn, `CC1Oc2cc(cnc2N)-c2c(nn(C)c2C#N)CN(C)C(=O)c2ccc(F)cc21` (stereo not given) [Lorlatinib] registered an AC50 cell viability in the test with HCT116 [1] of 14.8 µM. In the test with HCT116 [2], the efficacy was -46.2%.
Taken in the same sequence, the figures for `C[C@H]1Oc2cc(cnc2N)-c2c(nn(C)c2C#N)CN(C)C(=O)c2ccc(F)cc21` [Lorlatinib] were 0.372 µM and -33.7%.
Taken in the same sequence, the figures for `CCN(CC)CCNc1ccc(C)c2sc3ccccc3c(=O)c12` [Lucanthone] were 14.8 µM and -119%.

The values above are taken from the supplement of paper PMC10290057.
